# Experiments:
# Conditions in all cases: Compound concentration 1000.0 nM
# [1] = biological target: Atypical kinase COQ8A, mitochondrial (Homo sapiens) (UniProt Q8NI60)
# [2] = biological target: Cytoplasmic tyrosine-protein kinase BMX (Homo sapiens) (UniProt P51813)
# [3] = tested on: Serine/threonine-protein kinase B-raf (Homo sapiens), P15056 [V600E]
# [4] = biological target: Protein-tyrosine kinase 6 (Homo sapiens) (UniProt Q13882)
# [5] = biological target: Mitotic checkpoint serine/threonine-protein kinase BUB1 (Homo sapiens) (UniProt O43683)
# [6] = biological target: Citron Rho-interacting kinase (Homo sapiens) (UniProt O14578)
# [7] = biological target: Casein kinase II subunit alpha' (Homo sapiens) (UniProt P19784)
# Sequence of Casein kinase II subunit alpha' (Homo sapiens) (P19784 whole entry, looked up): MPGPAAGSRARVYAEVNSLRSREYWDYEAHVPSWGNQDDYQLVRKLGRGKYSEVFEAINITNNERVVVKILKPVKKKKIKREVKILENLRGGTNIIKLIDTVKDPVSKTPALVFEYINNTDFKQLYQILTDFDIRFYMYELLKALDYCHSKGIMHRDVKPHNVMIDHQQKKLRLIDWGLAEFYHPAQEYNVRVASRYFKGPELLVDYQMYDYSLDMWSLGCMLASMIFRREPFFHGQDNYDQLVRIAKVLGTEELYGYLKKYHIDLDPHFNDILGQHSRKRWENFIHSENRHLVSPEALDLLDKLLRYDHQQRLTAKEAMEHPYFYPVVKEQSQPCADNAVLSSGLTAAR
# [8] = biological target: Serine/threonine-protein kinase 17A (Homo sapiens) (UniProt Q9UEE5)
# Sequence of Serine/threonine-protein kinase 17A (Homo sapiens) (Q9UEE5 whole entry): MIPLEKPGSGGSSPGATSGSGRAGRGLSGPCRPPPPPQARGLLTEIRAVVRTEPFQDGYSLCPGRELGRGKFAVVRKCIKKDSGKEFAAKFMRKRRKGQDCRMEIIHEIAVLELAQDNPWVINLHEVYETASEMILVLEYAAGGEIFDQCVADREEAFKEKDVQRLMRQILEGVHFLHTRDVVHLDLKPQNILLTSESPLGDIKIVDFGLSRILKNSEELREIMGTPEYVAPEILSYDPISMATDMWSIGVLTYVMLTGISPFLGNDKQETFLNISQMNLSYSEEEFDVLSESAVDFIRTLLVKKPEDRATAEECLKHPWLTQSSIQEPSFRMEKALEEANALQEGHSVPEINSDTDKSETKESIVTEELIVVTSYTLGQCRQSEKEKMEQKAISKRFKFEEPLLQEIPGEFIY
# [9] = biological target: Ephrin type-A receptor 6 (Homo sapiens) (UniProt Q9UF33)
# [10] = biological target: Ephrin type-B receptor 1 (Homo sapiens) (UniProt P54762)
# [11] = biological target: Ephrin type-B receptor 3 (Homo sapiens) (UniProt P54753)
# [12] = biological target: Fibroblast growth factor receptor 1 (Homo sapiens) (UniProt P11362)
# [13] = biological target: Vascular endothelial growth factor receptor 1 (Homo sapiens) (UniProt P17948)
# [14] = biological target: Rhodopsin kinase GRK1 (Homo sapiens) (UniProt Q15835)
# [15] = biological target: Inhibitor of nuclear factor kappa-B kinase subunit beta (Homo sapiens) (UniProt O14920)
# [16] = biological target: Tyrosine-protein kinase ITK/TSK (Homo sapiens) (UniProt Q08881)
# [17] = tested on: Mast/stem cell growth factor receptor Kit (Homo sapiens), P10721 [A829P]
# [18] = biological target: Mitogen-activated protein kinase kinase kinase 3 (Homo sapiens) (UniProt Q99759)
# [19] = biological target: Mitogen-activated protein kinase kinase kinase kinase 3 (Homo sapiens) (UniProt Q8IVH8)
# [20] = biological target: Misshapen-like kinase 1 (Homo sapiens) (UniProt Q8N4C8)
# [21] = biological target: Serine/threonine-protein kinase Nek1 (Homo sapiens) (UniProt Q96PY6)
# [22] = biological target: Serine/threonine-protein kinase Nek5 (Homo sapiens) (UniProt Q6P3R8)
# [23] = biological target: Serine/threonine-protein kinase PAK 2 (Homo sapiens) (UniProt Q13177)
# [24] = biological target: Serine/threonine-protein kinase PAK 6 (Homo sapiens) (UniProt Q9NQU5)
# [25] = biological target: Platelet-derived growth factor receptor beta (Homo sapiens) (UniProt P09619)
# Sequence of Platelet-derived growth factor receptor beta (Homo sapiens) (P09619 whole entry): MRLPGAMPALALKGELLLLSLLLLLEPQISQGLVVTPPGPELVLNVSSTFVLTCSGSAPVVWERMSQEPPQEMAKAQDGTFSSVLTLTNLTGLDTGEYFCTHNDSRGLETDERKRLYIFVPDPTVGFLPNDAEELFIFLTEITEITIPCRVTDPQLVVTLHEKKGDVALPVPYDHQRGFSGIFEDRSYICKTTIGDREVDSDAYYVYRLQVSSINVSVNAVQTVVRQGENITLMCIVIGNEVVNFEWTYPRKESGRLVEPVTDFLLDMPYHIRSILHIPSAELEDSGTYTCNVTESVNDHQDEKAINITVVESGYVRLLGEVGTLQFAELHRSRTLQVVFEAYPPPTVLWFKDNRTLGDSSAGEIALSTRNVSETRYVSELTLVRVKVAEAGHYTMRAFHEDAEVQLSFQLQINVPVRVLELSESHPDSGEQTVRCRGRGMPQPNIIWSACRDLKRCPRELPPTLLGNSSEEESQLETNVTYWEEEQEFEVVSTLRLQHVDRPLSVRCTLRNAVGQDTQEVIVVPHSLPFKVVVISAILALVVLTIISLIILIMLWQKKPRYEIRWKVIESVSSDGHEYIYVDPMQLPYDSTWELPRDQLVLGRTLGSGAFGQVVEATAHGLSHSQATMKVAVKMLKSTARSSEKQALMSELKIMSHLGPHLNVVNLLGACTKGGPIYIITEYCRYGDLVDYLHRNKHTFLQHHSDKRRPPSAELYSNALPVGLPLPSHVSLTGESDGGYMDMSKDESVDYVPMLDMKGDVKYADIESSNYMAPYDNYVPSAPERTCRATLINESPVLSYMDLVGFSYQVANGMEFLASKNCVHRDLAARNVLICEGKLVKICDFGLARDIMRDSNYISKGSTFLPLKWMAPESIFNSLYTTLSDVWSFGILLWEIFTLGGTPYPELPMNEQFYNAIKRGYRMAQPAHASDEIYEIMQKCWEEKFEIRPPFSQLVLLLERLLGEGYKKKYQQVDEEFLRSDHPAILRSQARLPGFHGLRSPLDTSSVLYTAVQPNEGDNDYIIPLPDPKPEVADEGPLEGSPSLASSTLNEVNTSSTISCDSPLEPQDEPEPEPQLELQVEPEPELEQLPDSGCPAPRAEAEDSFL
# [26] = biological target: Cyclin-dependent kinase 2 homolog (Plasmodium falciparum (isolate 3D7)) (UniProt P61075)
# Sequence of Cyclin-dependent kinase 2 homolog (Plasmodium falciparum (isolate 3D7)) (P61075 whole entry, canonical isoform): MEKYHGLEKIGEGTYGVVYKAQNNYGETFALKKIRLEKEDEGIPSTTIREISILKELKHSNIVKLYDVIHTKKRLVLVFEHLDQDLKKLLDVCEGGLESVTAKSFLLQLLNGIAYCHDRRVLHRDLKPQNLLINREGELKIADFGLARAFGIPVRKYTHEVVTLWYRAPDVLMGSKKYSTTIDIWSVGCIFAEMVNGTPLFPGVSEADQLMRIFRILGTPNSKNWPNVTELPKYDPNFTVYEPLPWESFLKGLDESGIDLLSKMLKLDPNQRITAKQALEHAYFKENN
# [27] = tested on: Phosphatidylinositol 4,5-bisphosphate 3-kinase catalytic subunit alpha isoform (Homo sapiens), P42336 [E542K]
# [28] = biological target: Phosphatidylinositol 4-kinase beta (Homo sapiens) (UniProt Q9UBF8)
# [29] = biological target: Serine/threonine-protein kinase pim-3 (Homo sapiens) (UniProt Q86V86)
# [30] = biological target: Phosphatidylinositol 5-phosphate 4-kinase type-2 beta (Homo sapiens) (UniProt P78356)
# [31] = biological target: Membrane-associated tyrosine- and threonine-specific cdc2-inhibitory kinase (Homo sapiens) (UniProt Q99640)
# [32] = biological target: Protein kinase C epsilon type (Homo sapiens) (UniProt Q02156)
# [33] = biological target: Protein kinase C theta type (Homo sapiens) (UniProt Q04759)
# [34] = biological target: Serine/threonine-protein kinase PRP4 homolog (Homo sapiens) (UniProt Q13523)
# [35] = biological target: Receptor-interacting serine/threonine-protein kinase 2 (Homo sapiens) (UniProt O43353)
# Sequence of Receptor-interacting serine/threonine-protein kinase 2 (Homo sapiens) (O43353 whole entry): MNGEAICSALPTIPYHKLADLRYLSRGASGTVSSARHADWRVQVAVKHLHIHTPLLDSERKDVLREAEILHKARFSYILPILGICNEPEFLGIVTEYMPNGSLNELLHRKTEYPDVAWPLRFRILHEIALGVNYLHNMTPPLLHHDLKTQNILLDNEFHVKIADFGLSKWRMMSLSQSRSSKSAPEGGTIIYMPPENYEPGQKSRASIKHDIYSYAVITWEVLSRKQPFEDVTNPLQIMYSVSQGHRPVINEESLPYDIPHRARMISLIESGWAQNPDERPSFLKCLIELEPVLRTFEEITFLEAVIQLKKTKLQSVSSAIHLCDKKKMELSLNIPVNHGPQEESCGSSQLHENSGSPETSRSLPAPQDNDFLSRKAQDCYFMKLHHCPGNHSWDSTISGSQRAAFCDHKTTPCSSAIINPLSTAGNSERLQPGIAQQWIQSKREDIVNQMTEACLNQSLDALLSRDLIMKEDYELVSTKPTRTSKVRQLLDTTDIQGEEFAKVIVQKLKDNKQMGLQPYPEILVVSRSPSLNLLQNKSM
# [36] = biological target: Rho-associated protein kinase 1 (Homo sapiens) (UniProt Q13464)
# [37] = biological target: Ribosomal protein S6 kinase alpha-5 (Homo sapiens) (UniProt O75582)
# Sequence of Ribosomal protein S6 kinase alpha-5 (Homo sapiens) (O75582 whole entry, looked up): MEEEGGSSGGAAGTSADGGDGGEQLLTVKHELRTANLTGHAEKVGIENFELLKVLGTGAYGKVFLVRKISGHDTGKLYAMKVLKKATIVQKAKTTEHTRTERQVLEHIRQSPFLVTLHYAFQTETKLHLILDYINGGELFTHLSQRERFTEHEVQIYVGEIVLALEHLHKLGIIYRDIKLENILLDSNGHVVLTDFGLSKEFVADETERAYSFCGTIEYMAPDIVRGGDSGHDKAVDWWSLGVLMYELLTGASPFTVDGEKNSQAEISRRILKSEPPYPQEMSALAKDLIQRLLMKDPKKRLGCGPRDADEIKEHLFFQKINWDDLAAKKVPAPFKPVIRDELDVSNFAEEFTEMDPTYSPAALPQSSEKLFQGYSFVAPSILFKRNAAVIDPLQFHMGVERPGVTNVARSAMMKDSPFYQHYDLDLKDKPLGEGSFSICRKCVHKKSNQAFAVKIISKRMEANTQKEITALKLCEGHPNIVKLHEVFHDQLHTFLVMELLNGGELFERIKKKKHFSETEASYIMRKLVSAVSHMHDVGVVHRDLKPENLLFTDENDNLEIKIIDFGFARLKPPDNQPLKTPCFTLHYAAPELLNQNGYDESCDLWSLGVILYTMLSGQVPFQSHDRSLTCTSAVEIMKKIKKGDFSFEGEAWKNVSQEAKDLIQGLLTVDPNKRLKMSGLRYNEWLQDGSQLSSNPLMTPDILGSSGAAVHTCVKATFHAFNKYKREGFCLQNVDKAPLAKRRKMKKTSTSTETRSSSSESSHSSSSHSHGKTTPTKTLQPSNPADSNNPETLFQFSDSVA
# [38] = biological target: Ribosomal protein S6 kinase alpha-1 (Homo sapiens) (UniProt Q15418)
# [39] = biological target: Serine/threonine-protein kinase SIK1 (Homo sapiens) (UniProt P57059)
# [40] = biological target: SNF-related serine/threonine-protein kinase (Homo sapiens) (UniProt Q9NRH2)
# [41] = biological target: SRSF protein kinase 1 (Homo sapiens) (UniProt Q96SB4)
# [42] = biological target: TGF-beta receptor type-1 (Homo sapiens) (UniProt P36897)
# Sequence of TGF-beta receptor type-1 (Homo sapiens) (P36897 whole entry): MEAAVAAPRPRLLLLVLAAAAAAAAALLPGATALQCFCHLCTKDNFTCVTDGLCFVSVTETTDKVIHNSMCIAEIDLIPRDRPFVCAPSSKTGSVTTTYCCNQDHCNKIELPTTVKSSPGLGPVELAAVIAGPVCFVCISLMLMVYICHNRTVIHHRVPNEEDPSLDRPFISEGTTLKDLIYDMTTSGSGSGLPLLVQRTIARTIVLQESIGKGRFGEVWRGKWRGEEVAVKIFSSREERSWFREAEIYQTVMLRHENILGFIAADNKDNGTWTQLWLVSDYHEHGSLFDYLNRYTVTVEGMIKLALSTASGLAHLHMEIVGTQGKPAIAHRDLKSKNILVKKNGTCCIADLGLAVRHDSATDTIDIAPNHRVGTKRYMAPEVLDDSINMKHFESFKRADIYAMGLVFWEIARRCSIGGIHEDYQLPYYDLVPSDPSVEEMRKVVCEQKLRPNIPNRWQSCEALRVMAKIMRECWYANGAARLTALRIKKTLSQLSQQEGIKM
# [43] = biological target: NT-3 growth factor receptor (Homo sapiens) (UniProt Q16288)
# [44] = biological target: Wee1-like protein kinase (Homo sapiens) (UniProt P30291)
# [45] = biological target: Serine/threonine-protein kinase WNK4 (Homo sapiens) (UniProt Q96J92)
# Sequence of Cytoplasmic tyrosine-protein kinase BMX (Homo sapiens) (P51813 whole entry): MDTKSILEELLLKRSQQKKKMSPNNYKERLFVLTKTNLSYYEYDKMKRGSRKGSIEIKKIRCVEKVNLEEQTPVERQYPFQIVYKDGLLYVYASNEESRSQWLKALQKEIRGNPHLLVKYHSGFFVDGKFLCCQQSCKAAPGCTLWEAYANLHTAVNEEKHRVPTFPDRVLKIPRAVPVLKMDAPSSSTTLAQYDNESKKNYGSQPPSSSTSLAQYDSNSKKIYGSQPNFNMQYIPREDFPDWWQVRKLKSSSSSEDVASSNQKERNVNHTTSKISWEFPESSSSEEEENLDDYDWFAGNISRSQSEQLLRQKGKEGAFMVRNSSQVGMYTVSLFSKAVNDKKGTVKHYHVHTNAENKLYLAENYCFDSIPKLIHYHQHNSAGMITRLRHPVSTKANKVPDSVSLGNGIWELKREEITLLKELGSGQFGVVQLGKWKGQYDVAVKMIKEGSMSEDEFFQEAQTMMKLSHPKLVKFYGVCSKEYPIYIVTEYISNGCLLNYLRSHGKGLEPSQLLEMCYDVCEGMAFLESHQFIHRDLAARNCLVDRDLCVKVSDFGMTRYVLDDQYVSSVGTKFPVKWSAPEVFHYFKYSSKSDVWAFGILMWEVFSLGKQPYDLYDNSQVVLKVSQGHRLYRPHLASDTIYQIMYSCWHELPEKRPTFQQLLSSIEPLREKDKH
compound,measurement,setting,value
CC(=O)N1CCC(c2ccc(C(=O)NC(=N)N)cc2C(F)(F)F)CC1 [BI 9627],residual activity,[1],96%
same,residual activity,[2],100%
same,residual activity,[3],100%
same,residual activity,[4],100%
same,residual activity,[5],85%
same,residual activity,[6],98%
same,residual activity,[7],100%
same,residual activity,[8],100%
same,residual activity,[9],96%
same,residual activity,[10],100%
same,residual activity,[11],97%
same,residual activity,[12],100%
same,residual activity,[13],100%
same,residual activity,[14],98%
same,residual activity,[15],100%
same,residual activity,[16],100%
same,residual activity,[17],100%
same,residual activity,[18],90%
same,residual activity,[19],100%
same,residual activity,[20],95%
same,residual activity,[21],100%
same,residual activity,[22],100%
same,residual activity,[23],100%
same,residual activity,[24],100%
same,residual activity,[25],100%
same,residual activity,[26],100%
same,residual activity,[27],82%
same,residual activity,[28],100%
same,residual activity,[29],100%
same,residual activity,[30],77%
same,residual activity,[31],100%
same,residual activity,[32],100%
same,residual activity,[33],91%
same,residual activity,[34],78%
same,residual activity,[35],100%
same,residual activity,[36],87%
same,residual activity,[37],100%
same,residual activity,[38],100%
same,residual activity,[39],100%
same,residual activity,[40],100%
same,residual activity,[41],86%
same,residual activity,[42],100%
same,residual activity,[43],100%
same,residual activity,[44],100%
same,residual activity,[45],100%
CC(=O)N1CCC(c2ccc(C(=O)NC3=NCCN3)cc2C(F)(F)F)CC1 [BI 0054],residual activity,[1],95%
same,residual activity,[2],100%
same,residual activity,[3],100%
same,residual activity,[4],88%
same,residual activity,[5],100%
same,residual activity,[6],100%
same,residual activity,[7],100%
same,residual activity,[8],100%
same,residual activity,[9],98%
same,residual activity,[10],100%
same,residual activity,[11],93%
same,residual activity,[12],100%
same,residual activity,[13],100%
same,residual activity,[14],95%
same,residual activity,[15],85%
same,residual activity,[16],91%
same,residual activity,[17],100%
same,residual activity,[18],100%
same,residual activity,[19],95%
same,residual activity,[20],100%
same,residual activity,[21],100%
same,residual activity,[22],100%
same,residual activity,[23],95%
same,residual activity,[24],100%
same,residual activity,[25],95%
same,residual activity,[26],100%
same,residual activity,[27],100%
same,residual activity,[28],91%
same,residual activity,[29],100%
same,residual activity,[30],75%
same,residual activity,[31],100%
same,residual activity,[32],84%
same,residual activity,[33],93%
same,residual activity,[34],100%
same,residual activity,[35],100%
same,residual activity,[36],0.5%
same,residual activity,[37],100%
same,residual activity,[38],100%
same,residual activity,[39],100%
same,residual activity,[40],98%
same,residual activity,[41],100%
same,residual activity,[42],100%
same,residual activity,[43],100%
same,residual activity,[44],100%
same,residual activity,[45],100%
